{
  "source": "PubChem BioAssay AID1996",
  "data": [
    {"details": "buffer; pH 7.4; 200.0 µM", "units": {"solubility kinetic": "µg/mL"}, "values": [
      {"smiles": "Cc1ccc(Cl)cc1NC(=O)NCc1ccccn1", "solubility kinetic": 36.5},
      {"smiles": "COc1ccc(-c2csc(Nc3cccc(C)n3)n2)cc1C", "solubility kinetic": 3.4},
      {"smiles": "Cc1cc2cc(CCNC(=O)CCCc3ccccc3)c(=O)[nH]c2cc1C", "solubility kinetic": 1.7},
      {"smiles": "COc1ccc(OC)c(N/C=C/C(=O)c2ccccc2)c1", "solubility kinetic": 2.1},
      {"smiles": "NS(=O)(=O)c1ccc(CNC(=O)Cc2cccs2)cc1", "solubility kinetic": 45.1},
      {"smiles": "Nc1ccccc1-c1nnc(SCC(=O)Nc2ccccc2OC(F)F)[nH]c1=O", "solubility kinetic": "> 62.9"},
      {"smiles": "O=C(NC(=S)NC1CCSC1=O)c1cccc([N+](=O)[O-])c1", "note": "(stereo not given)", "solubility kinetic": 43.2},
      {"smiles": "Cc1ccc(Nc2c(-c3ccc(N(C)C)cc3)nc3ncccn23)cc1", "solubility kinetic": 1},
      {"smiles": "O=C(NCCNC(=O)c1cccc(O)c1)c1cccc(O)c1", "solubility kinetic": "> 45"},
      {"smiles": "C=CCNC(=O)CN1N=C(c2ccc(C)cc2)CCC1=O", "solubility kinetic": "> 42.8"},
      {"smiles": "Cc1ccc(NC(=O)C(=O)NCCc2c[nH]c3ccccc23)cc1C", "solubility kinetic": "< 0.2"},
      {"smiles": "CC1CN=C(N(C(=O)Nc2ccccc2)C(C)c2ccccc2)S1", "note": "(stereo not given)", "solubility kinetic": 27},
      {"smiles": "COc1cc(C(=O)N2CCc3ccccc32)cc(OC)c1OC", "solubility kinetic": 40.8},
      {"smiles": "O=C(C[n+]1ccc2ccccc2c1)c1ccccc1.[Br-]", "solubility kinetic": "> 49.2"},
      {"smiles": "CCc1cccc(CC)c1NC(=O)CN1CCc2cc(OC)c(OC)cc2C1", "solubility kinetic": 38.8},
      {"smiles": "Cc1ccc(C(=O)Nc2ccc(S(=O)(=O)N3CCOCC3)cc2)cc1Br", "solubility kinetic": 0.5},
      {"smiles": "COc1ccc(Cl)cc1NC(=O)NCCN1CCNC1=O", "solubility kinetic": 43.9},
      {"smiles": "Clc1cnc2nc(SC/C=C/c3ccccc3)[nH]c2c1", "solubility kinetic": "< 0.2"},
      {"smiles": "CCN(CC(=O)Nc1cccc(OC)c1)C(=O)c1ccncc1", "solubility kinetic": 37.2},
      {"smiles": "COc1cccc(C(=O)Nc2cccc(NC(=O)c3cccs3)c2)c1", "solubility kinetic": 13.5},
      {"smiles": "CC(C)CCn1c(=O)[nH]c2ccccc21", "solubility kinetic": "> 30.6"},
      {"smiles": "CNC(=O)Nc1ccc(C2SCCS2)cc1", "solubility kinetic": 19.9},
      {"smiles": "Cl.O=C(NCCN1CCOCC1)c1ccccc1OCc1ccccc1", "solubility kinetic": "> 56.5"},
      {"smiles": "O=C(O)c1cccc2c1/C(=N/O)c1ccccc1-2", "solubility kinetic": "> 35.9"},
      {"smiles": "Cc1nc2ccc(NS(=O)(=O)c3c(F)cccc3F)cc2s1", "solubility kinetic": "> 51.1"},
      {"smiles": "COc1ccc(S(=O)(=O)NC2CCc3ccccc32)cc1OC", "note": "(stereo not given)", "solubility kinetic": "> 50"},
      {"smiles": "NC(=O)NC(=O)COC(=O)/C=C/c1cccs1", "solubility kinetic": 10.4},
      {"smiles": "NC(=O)c1ccc(N=Cc2c(O)ccc3ccccc23)cc1", "solubility kinetic": 10.3},
      {"smiles": "O=C(O)C1C2CCC(O2)C1C(=O)Nc1ccc(F)c(Cl)c1", "note": "(stereo not given)", "solubility kinetic": "> 47.1"},
      {"smiles": "Cc1ccc(N2CC(c3nc4ccccc4n3C)CC2=O)cc1", "note": "(stereo not given)", "solubility kinetic": "> 45.8"},
      {"smiles": "Cc1ccc(CN2C(=O)CSC(C)C2=O)cc1", "note": "(stereo not given)", "solubility kinetic": "> 37.4"},
      {"smiles": "Cc1cccc(C(C)C)c1NC(=O)c1ccc(OCC2CCCO2)cc1", "note": "(stereo not given)", "solubility kinetic": 12.1},
      {"smiles": "CN(C)C(CNS(=O)(=O)c1ccc(Cl)cc1F)c1ccco1.Cl", "note": "(stereo not given)", "solubility kinetic": "> 57.5"},
      {"smiles": "CC(=O)c1cccc(Nc2cc(C)nc3c(C)cccc23)c1.Cl", "solubility kinetic": "> 49"},
      {"smiles": "Cc1ncc([N+](=O)[O-])n1CCOc1nonc1N", "solubility kinetic": "> 38.1"},
      {"smiles": "S=c1nc(COc2ccccc2)[nH]c2ccccc12", "solubility kinetic": 8},
      {"smiles": "Cc1ccc(NC(=O)CN(C)Cc2c(O)ccc3ccccc23)cc1", "solubility kinetic": 23.7},
      {"smiles": "Cc1ccc(NC(=O)CCOc2ccccc2C)cc1C", "solubility kinetic": 1.7},
      {"smiles": "O=C(Nc1ccc2ccccc2n1)c1ccc(Cl)cc1", "solubility kinetic": "< 0.3"},
      {"smiles": "CCc1cc2c(Nc3ccccc3O)nc(C)nc2s1.Cl", "solubility kinetic": "< 0.2"},
      {"smiles": "Cc1ccc(NC(=O)CCN2CCN(C)CC2)cc1.Cl", "solubility kinetic": 36.9},
      {"smiles": "COCCNC(=S)Nc1ccc2[nH]c(=O)[nH]c2c1", "solubility kinetic": "> 39.9"},
      {"smiles": "Cc1onc(-c2c(Cl)cccc2Cl)c1C(=O)O/N=C(\\C#N)c1c(Cl)cccc1Cl", "solubility kinetic": 62.9},
      {"smiles": "CCCNCC(=O)Nc1cccc(S(=O)(=O)NC2=NCCCCC2)c1.O=C(O)C(=O)O", "solubility kinetic": "> 68.5"},
      {"smiles": "O=C(CCC(=O)Nc1ccccc1)N/N=C/c1ccncc1", "solubility kinetic": "> 44.4"},
      {"smiles": "Cc1cc(NS(=O)(=O)c2cccc([N+](=O)[O-])c2)no1", "solubility kinetic": 32.5},
      {"smiles": "COc1cccc(NC(=O)C(=S)NC2CCCCC2)c1", "solubility kinetic": 1.3},
      {"smiles": "Cc1ccc2nc(NCCC(=O)O)nc(-c3ccccc3)c2c1", "solubility kinetic": "> 46.1"},
      {"smiles": "CCOC(=O)N1CCN(CC(=O)Nc2cc(OC)c(OC)cc2C#N)CC1", "solubility kinetic": 16.3},
      {"smiles": "Cc1nc([N+](=O)[O-])c(C(=O)O)n1C", "solubility kinetic": "> 27.8"},
      {"smiles": "O=C(O)Cn1c(O)c(C2=c3ccccc3=NC2=O)sc1=O", "solubility kinetic": 39.4},
      {"smiles": "CCc1noc(C)c1C(=O)OCC(=O)Nc1cccc(C)c1", "solubility kinetic": 20.4},
      {"smiles": "COc1cc(NC(=O)c2cccc(S(=O)(=O)N3CCCCC3)c2)cc(OC)c1OC", "solubility kinetic": 7.2},
      {"smiles": "CC(C)C(=O)Nc1ccc(N2CCOCC2)c(S(=O)(=O)Nc2ccccc2Cl)c1", "solubility kinetic": 2.8},
      {"smiles": "Cc1csc(SCC(=O)NC(C)c2ccccc2)n1", "note": "(stereo not given)", "solubility kinetic": "> 43.9"},
      {"smiles": "CC(C)(C)C(=O)Nc1ccc(S(=O)(=O)N2CCCC2)cc1", "solubility kinetic": "> 46.6"},
      {"smiles": "Cc1nc(SCC(=O)Nc2ccccc2Cl)c2c(C)c(C)sc2n1", "solubility kinetic": 3.9},
      {"smiles": "Cc1cccc(C)c1NC(=O)N1CC=CCC1", "solubility kinetic": "> 34.5"},
      {"smiles": "CCC1(c2ccccc2)NC(=O)N(CC(=O)NC2CCCCCC2)C1=O", "note": "(stereo not given)", "solubility kinetic": 37.8},
      {"smiles": "Cc1c(C(=O)Nc2ccc3c(c2)OCCO3)cnn1C", "solubility kinetic": "> 41"},
      {"smiles": "CCNC(=O)CC1C(=O)N(c2ccccc2)C(=O)N1CCOC", "note": "(stereo not given)", "solubility kinetic": "> 47.9"},
      {"smiles": "O=S(=O)(c1ccc(Br)cc1)N1CCCC1", "solubility kinetic": 41.5},
      {"smiles": "COCc1cc(C)nc(SCC(=O)NCC2CCCO2)c1C#N", "note": "(stereo not given)", "solubility kinetic": "> 50.3"},
      {"smiles": "CCOC(=O)c1c(O)c2cc(Cl)ccc2n(CC)c1=O", "solubility kinetic": "> 44.4"},
      {"smiles": "COC(=O)Cn1cc(C=C2C(=O)N(C)C(=O)N(C)C2=O)c2ccccc21", "solubility kinetic": 3.8},
      {"smiles": "CCN(CC(=O)NCc1ccc(F)cc1)CC(=O)NC1CCCC1", "solubility kinetic": "> 50.3"},
      {"smiles": "COc1ccc(S(=O)(=O)n2c([N+](=O)[O-])cnc2C)cc1OC", "solubility kinetic": "> 49.1"},
      {"smiles": "CN(CC(=O)Nc1ccccc1Cl)C(=O)CN1C(=O)C2CC=CCC2C1=O", "note": "(stereo not given)", "solubility kinetic": 50.3},
      {"smiles": "Cc1ccc(CN(C)C(=O)c2cccc(S(=O)(=O)N3CCCC3)c2)o1", "solubility kinetic": "> 54.4"},
      {"smiles": "Cc1csc(NC(=O)c2cccnc2)n1", "solubility kinetic": 32.5},
      {"smiles": "CS(=O)(=O)N(CC(=O)N1CCCC1)c1ccccc1F", "solubility kinetic": "> 45.1"},
      {"smiles": "O=c1c(Cc2ccc(F)cc2)c(O)ccn1CCCn1ccnc1", "solubility kinetic": "> 49.1"},
      {"smiles": "Cc1ccc(C(=O)NC2=NCCS2)cc1", "solubility kinetic": 32.9},
      {"smiles": "COc1cc(NC(=O)Cc2ccccc2)ccc1NC(=O)c1ccccc1", "solubility kinetic": "< 0.4"},
      {"smiles": "COc1ccc(NC(=O)CN2C(=O)NC3(CCCCCC3)C2=O)cc1Cl", "solubility kinetic": 13.8},
      {"smiles": "Cc1ccc(NC(=O)C2CCC(C(C)(C)C)CC2)cc1S(=O)(=O)N1CCOCC1", "note": "(stereo not given)", "solubility kinetic": 3.5},
      {"smiles": "O=C(NCc1cccc(C(F)(F)F)c1)c1ccc(=O)[nH]c1", "solubility kinetic": "> 44.4"},
      {"smiles": "O=c1nc(-c2ccccc2)c2cc(SC(F)F)ccc2[nH]1", "solubility kinetic": 1.4},
      {"smiles": "Cc1nc(N2CCOCC2)[nH]c(=O)c1C", "solubility kinetic": "> 31.4"},
      {"smiles": "Oc1ccc2c(c1)c1c3n2CCNC3CCC1", "note": "(stereo not given)", "solubility kinetic": 31.3},
      {"smiles": "Cc1ccc(C)c(NC(=S)NC23CN4CN(CN(C4)C2)C3)c1", "solubility kinetic": "> 47.6"},
      {"smiles": "Cc1cc(C)c(-c2nc3ccccc3s2)[nH]1", "solubility kinetic": 0.8},
      {"smiles": "Cc1ccc(NC(=O)CNCc2ccccc2)c(Br)c1", "solubility kinetic": 34.3},
      {"smiles": "O=C(COC(=O)c1cccc([N+](=O)[O-])c1)Nc1ncc(Br)s1", "solubility kinetic": 3.5},
      {"smiles": "COc1cc(OC)cc(C(=O)Nc2cccc3cccnc23)c1", "solubility kinetic": "< 0.3"}
    ]}
  ]
}
